How the values were obtained:
Assay type in all cases: cell-based
[1] = biological target: T1, human TREK-1 (Homo sapiens, UniProt O95069); test: TREK-1 Thallium flux assay, Method 2; conditions: measured by Method 2 of TREK1 Thalium flux assay (footnote *12); read-out: Tl+ Assay IC50
T1 construct: expressed in transfected cells
T1 sequence (O95069 1-426): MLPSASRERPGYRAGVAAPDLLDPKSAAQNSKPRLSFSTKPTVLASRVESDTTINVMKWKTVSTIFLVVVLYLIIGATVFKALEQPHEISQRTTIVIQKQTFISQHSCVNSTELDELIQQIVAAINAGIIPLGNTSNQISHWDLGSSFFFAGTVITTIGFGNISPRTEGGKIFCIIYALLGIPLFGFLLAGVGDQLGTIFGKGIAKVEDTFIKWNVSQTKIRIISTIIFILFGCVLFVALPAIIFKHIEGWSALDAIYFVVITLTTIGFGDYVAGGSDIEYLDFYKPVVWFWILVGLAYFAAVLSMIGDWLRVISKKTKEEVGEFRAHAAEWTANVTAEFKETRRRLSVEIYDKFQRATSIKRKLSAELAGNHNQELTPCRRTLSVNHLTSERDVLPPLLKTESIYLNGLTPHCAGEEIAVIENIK
Protocol: CHO-K1 cells stably expressing human TREK-1 were plated in 384-well plates on the day of assay, loaded with Thallos dye. Test compounds or control compound (tert-butyl (3-((4-(benzyloxy)-2-methylphenyl)carbamoyl)-4-chlorophenyl)carbamate) or 0.3% DMSO (vehicle control) were added directly to the cell plates and incubated for 10 min, and then treated with thallium stimulus buffer to initiate thallium flux. To measure the efficacy and potency of test compounds, the change in fluorescence intensity (ΔRatio) and % inhibition were calculated using the following equations:
ΔRatio=(fluorescence intensity at 25 seconds after thallium addition)/(average of fluorescent intensity before thallium addition)

[2] = biological target: T1, human TREK-1; test: TREK-1 Manual Patch Clamp (hMPC) assay; conditions: CHO-K1 cells stably expressing human TREK-1; whole-cell current at 0 mV
Protocol: The term “patch clamp technique” herein refers to the “gold standard” technique for evaluating TREK channel pharmacology. The detail method is described below.
CHO-K1 cells stably expressing human TREK-1 or HEK293 cells stably expressing human TREK-2 are plated on glass coverslips, and voltage clamped in the whole-cell configuration of the patch clamp technique. Cells were voltage clamped at a holding potential of −80 mV and the stepped to 0 mV for 500 msec. The voltage was subsequently ramped from −120 mV to +80 mV over a 500 msec duration. This step-ramp protocol was repeated every 10 sec. The bathing solution contained the following: 135 mM NaCl, 5 mM KCl, 2 mM CaCl2, 1 mM MgCl2, 5 mM D-Glucose, 10 mM HEPES, 10 mM sucrose (adjusted to pH 7.4 with NaOH, 300 mosmol/kg H2O). The pipette solution contained the following: 135 mM KCl, 2 mM MgCl2, 1 mM EGTA, 10 mM HEPES, 2 mM Na2ATP (adjusted to pH 7.35 with KOH, 285 mosmol/kg H2O). Test compounds were dissolved into the bathing solution. Experiments on TREK-2 were terminated with the addition of the control compound (tert-butyl (3-((4-(benzyloxy)-2-methylphenyl)carbamoyl)-4-chlorophenyl)carbamate) so that maximal inhibition could be determined. The effects of test compound on the currents were calculated at 0 mV using the following equations:
For CHO cells expressing TREK-1 channel: % inhibition=(1-post current/pre current)×100
The compounds shown in Table 2 were prepared in an analogous manner with the appropriate starting materials, and evaluated in our TREK-1 Manual Patch Clamp (hMPC) assay.

[3] = biological target: T1, human TREK-1; test: TREK-1 Thallium (Tl+) flux assay, Method 1; conditions: TREK-1 Thallium (Tl+) flux assay
In short: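 Readout: Thallos fluorescence ratio, taken 25 s post-thallium relative to the pre-thallium baseline average, then converted to % inhibition. Cells were CHO-K1 stably expressing human TREK-1, dye-loaded and exposed to test compound (vehicle 0.3% DMSO) for 10 min prior to thallium stimulation.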

| IC50 [1] | IC50 [2] | IC50 ([3]; values without footnote *12 are Method 1) | IC50 ([3]; no *^12 (Method 2) mark on these rows) | Compound |
| --- | --- | --- | --- | --- |
| 0.12 µM |  |  |  | Cc1cc(C#Cc2ccccc2)cnc1NC(=O)c1c(Cl)cnn1[C@H]1CCn2nccc2C1 (single isomer, unassigned) [Compound 456, 4-chloro-N-[3-methyl-5-(phenylethynyl)pyridin-2-yl]-1-[(5S)-4,5,6,7-tetrahydropyrazolo[1,5-a]pyridin-5-yl]-1H-pyrazole-5-carboxamide or 4-chloro-N-[3-methyl-5-(phenylethynyl)pyridin-2-yl]-1-[(5R)-4,5,6,7-tetrahydropyrazolo[1,5-a]pyridin-5-yl]-1H-pyrazole-5-carboxamide] |
| 0.037 µM |  |  |  | Cc1cc(C#Cc2ccccc2)cnc1NC(=O)c1c(Cl)cnn1[C@H]1CCn2nccc2C1 (single isomer, unassigned) [Compound 457, 4-chloro-N-[3-methyl-5-(phenylethynyl)pyridin-2-yl]-1-[(5S)-4,5,6,7-tetrahydropyrazolo[1,5-a]pyridin-5-yl]-1H-pyrazole-5-carboxamide or 4-chloro-N-[3-methyl-5-(phenylethynyl)pyridin-2-yl]-1-[(5R)-4,5,6,7-tetrahydropyrazolo[1,5-a]pyridin-5-yl]-1H-pyrazole-5-carboxamide] |
|  | 0.13 µM | 0.22 µM |  | CC(=O)N1CC(F)(Cn2ncc(Cl)c2C(=O)Nc2ncc(C#Cc3ccccc3)cc2F)C1 [Compound 140, 1-((1-acetyl-3-fluoroazetidin-3-yl)methyl)-4-chloro-N-(3-fluoro-5-(phenylethynyl)pyridin-2-yl)-1H-pyrazole-5-carboxamide] |
|  | 0.13 µM |  | 0.33 µM | CC(=O)N1CC(F)(Cn2ncc(Cl)c2C(=O)Nc2ncc(C#Cc3ccccc3)cc2C)C1 [Compound 215, 1-((1-acetyl-3-fluoroazetidin-3-yl)methyl)-4-chloro-N-(3-methyl-5-(phenylethynyl)pyridin-2-yl)-1H-pyrazole-5-carboxamide] |
| 0.13 µM | 0.1 µM |  |  | Cc1cc(C#Cc2ccccc2)cnc1NC(=O)c1c(Cl)cnn1[C@H]1CCN(C(=O)C2CC2)C1 [Compound 454, 4-chloro-1-[(3S)-1-(cyclopropanecarbonyl)pyrrolidin-3-yl]-N-[3-methyl-5-(phenylethynyl)pyridin-2-yl]-1H-pyrazole-5-carboxamide] |
| 0.14 µM |  |  |  | Cc1cc(C#Cc2ccccc2)cnc1NC(=O)c1c(Cl)cnn1[C@@H]1CCN(C(=O)C2CC2)C1 [Compound 455, 4-chloro-1-[(3R)-1-(cyclopropanecarbonyl)pyrrolidin-3-yl]-N-[3-methyl-5-(phenylethynyl)pyridin-2-yl]-1H-pyrazole-5-carboxamide] |

Reference: patent US20240182445A1 (ONO PHARMACEUTICAL CO., LTD., priority 2019, published 2024)
